Experimental data reported in ChEMBL document CHEMBL1131172 (J Med Chem, 1998).

Key:
A549 [1] = assay: Inhibition of the growth of non-small-cell lung cancer (A549/ATCC) cell line at 0.01 uM; assay type: functional; conditions: Homo sapiens
SF-268 [2] = assay: inhibition of the growth of CNS cancer(SF-268) cell line; assay type: functional; conditions: Homo sapiens
SF-539 [3] = assay: Inhibition of the growth of CNS cancer(SF-539) cell line at 0.01 uM; assay type: functional; conditions: Homo sapiens
UO-31 [4] = assay: inhibition of the growth of renal cancer(UO-31) cell line; assay type: functional; conditions: Homo sapiens
NCI-H322M [5] = assay: inhibition of the growth of non-small-cell lung cancer (NCI-H322M) cell line; assay type: functional; conditions: Homo sapiens
IGROV-1 [6] = assay: inhibition of the growth of ovarian cancer(IGROVI) cell line; assay type: functional; conditions: Homo sapiens
MDA-MB-435 [7] = assay: Inhibition of the growth of breast cancer (MDA-MB-435) cell line; assay type: functional; conditions: Homo sapiens
[8] = target: T1, Bifunctional dihydrofolate reductase-thymidylate synthase (Toxoplasma gondii, UniProt Q07422)
T1 sequence (Q07422 whole entry): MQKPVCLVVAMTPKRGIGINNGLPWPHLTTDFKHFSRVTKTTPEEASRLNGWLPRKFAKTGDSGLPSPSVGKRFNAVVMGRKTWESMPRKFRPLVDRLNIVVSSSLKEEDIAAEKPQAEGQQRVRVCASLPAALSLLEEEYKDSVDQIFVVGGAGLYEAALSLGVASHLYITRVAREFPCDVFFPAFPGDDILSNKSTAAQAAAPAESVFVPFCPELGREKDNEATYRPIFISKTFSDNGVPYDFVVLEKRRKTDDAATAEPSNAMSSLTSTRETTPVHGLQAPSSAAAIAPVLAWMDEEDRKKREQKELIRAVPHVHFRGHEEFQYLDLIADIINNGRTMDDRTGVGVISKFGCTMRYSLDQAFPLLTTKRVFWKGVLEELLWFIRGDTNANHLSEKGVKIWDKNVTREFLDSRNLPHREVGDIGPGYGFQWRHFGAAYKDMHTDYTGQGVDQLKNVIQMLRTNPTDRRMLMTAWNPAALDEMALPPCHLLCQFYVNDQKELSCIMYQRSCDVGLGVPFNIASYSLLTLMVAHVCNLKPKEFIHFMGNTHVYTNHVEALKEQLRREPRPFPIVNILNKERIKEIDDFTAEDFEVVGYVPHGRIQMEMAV
Description: Inhibitory activity against dihydrofolate reductase (DHFR) from Toxoplasma gondii

MCF7 [9] = assay: Inhibition of the growth of breast cancer (MCF-7) cell line at 0.01 uM; assay type: functional; conditions: Homo sapiens
SF-268 [10] = assay: Inhibition of the growth of CNS cancer(SF-268) cell line at 0.01 uM; assay type: functional; conditions: Homo sapiens
NCI-H522 [11] = assay: Inhibition of the growth of non-small-cell lung cancer (NCI-H522) cell line at 0.01 uM; assay type: functional; conditions: Homo sapiens
M14 [12] = assay: Inhibition of the growth of melanoma cancer (M14) cell line at 0.01 uM; assay type: functional; conditions: Homo sapiens
KM12 [13] = assay: Inhibition of the growth of colon cancer(KM-12) cell line at 0.01 uM; assay type: functional; conditions: Homo sapiens
MDA-N [14] = assay: inhibition of the growth of breast cancer(MDA-N) cell line; assay type: functional; conditions: Homo sapiens
786-0 [15] = assay: Inhibition of the growth of renal cancer(786-0) cell line at 0.01 uM; assay type: functional; conditions: Homo sapiens
NCI/ADR-RES [16] = assay: Inhibition of the growth of breast cancer (MCF7/ADR-RES) cell line at 0.01 uM; assay type: functional; conditions: Homo sapiens
SK-MEL-5 [17] = assay: inhibition of the growth of melanoma cancer (SK-MEL-5) cell line; assay type: functional; conditions: Homo sapiens
MOLT-4 [18] = assay: Inhibition of the growth of leukemia (MOLT-4) cell line at 0.01 uM; assay type: functional; conditions: Homo sapiens
HCT-15 [19] = assay: Inhibition of the growth of colon cancer(HCT-15) cell line at 0.01 uM; assay type: functional; conditions: Homo sapiens
SF-295 [20] = assay: Inhibition of the growth of CNS cancer(SF-295) cell line at 0.01 uM; assay type: functional; conditions: Homo sapiens
SF-539 [21] = assay: inhibition of the growth of CNS cancer(SF-539) cell line; assay type: functional; conditions: Homo sapiens
NCI/ADR-RES [22] = assay: inhibition of the growth of breast cancer (MCF7/ADR-RES) cell line; assay type: functional; conditions: Homo sapiens
HCT-15 [23] = assay: inhibition of the growth of colon cancer(HCT-15) cell line; assay type: functional; conditions: Homo sapiens
NCI-H522 [24] = assay: Inhibition of the growth of non-small-cell lung cancer (NCI-H522) cell line; assay type: functional; conditions: Homo sapiens
SR [25] = assay: Inhibition of the growth of leukemia(SR) cell line at 0.01 uM; assay type: functional; conditions: Homo sapiens
MDA-N [26] = assay: Inhibition of the growth of breast cancer(MDA-N) cell line at 0.01 uM; assay type: functional; conditions: Homo sapiens
NCI-H322M [27] = assay: Inhibition of the growth of non-small-cell lung cancer (NCI-H322M) cell line at 0.01 uM; assay type: functional; conditions: Homo sapiens
SR [28] = assay: Inhibition of the growth of leukemia(SR) cell line; assay type: functional; conditions: Homo sapiens
A549 [29] = assay: Inhibition of the growth of non-small-cell lung cancer (A549/ATCC) cell line; assay type: functional; conditions: Homo sapiens
RPMI-8226 [30] = assay: Inhibition of the growth of leukemia (RPMI-8226) cell line AT 0.01 uM; assay type: functional; conditions: Homo sapiens
Dihydrofolate reductase [31] = target: T2, Dihydrofolate reductase (Pneumocystis carinii, UniProt P16184)
T2 sequence (P16184 whole entry): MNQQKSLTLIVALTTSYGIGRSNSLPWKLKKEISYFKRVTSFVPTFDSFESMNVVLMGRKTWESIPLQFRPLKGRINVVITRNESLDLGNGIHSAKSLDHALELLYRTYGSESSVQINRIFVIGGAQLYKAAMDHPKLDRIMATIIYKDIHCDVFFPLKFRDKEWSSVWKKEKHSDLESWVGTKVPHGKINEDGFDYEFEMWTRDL
Description: Inhibitory activity against dihydrofolate reductase (DHFR) from Pneumocystis carinii

CAKI-1 [32] = assay: Inhibition of the growth of renal cancer(CAKI-1) cell line at 0.01 uM; assay type: functional; conditions: Homo sapiens
IGROV-1 [33] = assay: Inhibition of the growth of ovarian cancer(IGROVI) cell line at 0.01 uM; assay type: functional; conditions: Homo sapiens
RPMI-8226 [34] = assay: Inhibition of the growth of leukemia (RPMI-8226) cell line; assay type: functional; conditions: Homo sapiens
NCI-H23 [35] = assay: inhibition of the growth of non-small-cell lung cancer (NCI-H23) cell line; assay type: functional; conditions: Homo sapiens
MDA-MB-435 [36] = assay: Inhibition of the growth of breast cancer (MDA-MB-435) cell line at 0.01 uM; assay type: functional; conditions: Homo sapiens
NCI-H23 [37] = assay: inhibition of the growth of non-small-cell lung cancer (NCI-H23) cell line at 0.01 uM; assay type: functional; conditions: Homo sapiens
OVCAR-8 [38] = assay: inhibition of the growth of ovarian cancer(OVCAR-8) cell line; assay type: functional; conditions: Homo sapiens
UO-31 [39] = assay: Inhibition of the growth of renal cancer(UO-31) cell line at 0.01 uM; assay type: functional; conditions: Homo sapiens
MCF7 [40] = assay: inhibition of the growth of breast cancer (MCF-7) cell line; assay type: functional; conditions: Homo sapiens
786-0 [41] = assay: inhibition of the growth of renal cancer(786-0) cell line; assay type: functional; conditions: Homo sapiens
SNB-19 [42] = assay: Inhibition of the growth of CNS cancer(SNB-19) cell line at 0.01 uM; assay type: functional; conditions: Homo sapiens
NCI-H460 [43] = assay: inhibition of the growth of non-small-cell lung cancer (NCI-H460) cell line; assay type: functional; conditions: Homo sapiens
KM12 [44] = assay: inhibition of the growth of colon cancer(KM-12) cell line; assay type: functional; conditions: Homo sapiens
MOLT-4 [45] = assay: Inhibition of the growth of leukemia (MOLT-4) cell line; assay type: functional; conditions: Homo sapiens
OVCAR-8 [46] = assay: Inhibition of the growth of ovarian cancer(OVCAR-8) cell line at 0.01 uM; assay type: functional; conditions: Homo sapiens
DU-145 [47] = assay: Inhibition of the growth of prostate cancer(DU-145) cell line at 0.01 uM; assay type: functional; conditions: Homo sapiens
SNB-19 [48] = assay: inhibition of the growth of CNS cancer(SNB-19) cell line; assay type: functional; conditions: Homo sapiens
HCT-116 [49] = assay: Inhibition of the growth of colon cancer(HCT116) cell line; assay type: functional; conditions: Homo sapiens
CAKI-1 [50] = assay: inhibition of the growth of renal cancer(CAKI-1) cell line; assay type: functional; conditions: Homo sapiens
SK-MEL-5 [51] = assay: Inhibition of the growth of melanoma cancer (SK-MEL-5) cell line at 0.01 uM; assay type: functional; conditions: Homo sapiens
Dihydrofolate reductase [52] = target: T3, Dihydrofolate reductase (Rattus norvegicus, UniProt Q920D2)
T3 sequence (Q920D2 whole entry): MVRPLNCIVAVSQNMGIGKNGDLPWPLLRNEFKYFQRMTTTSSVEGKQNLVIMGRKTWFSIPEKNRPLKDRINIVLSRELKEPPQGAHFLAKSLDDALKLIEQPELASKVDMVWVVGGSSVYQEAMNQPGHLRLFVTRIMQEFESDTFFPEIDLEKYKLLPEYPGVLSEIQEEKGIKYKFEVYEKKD
Description: Inhibitory activity against dihydrofolate reductase (DHFR) from rat liver

M14 [53] = assay: inhibition of the growth of melanoma cancer (M14) cell line; assay type: functional; conditions: Homo sapiens
NCI-H460 [54] = assay: Inhibition of the growth of non-small-cell lung cancer (NCI-H460) cell line at 0.01 uM; assay type: functional; conditions: Homo sapiens
HCT-116 [55] = assay: Inhibition of the growth of colon cancer(HCT116) cell line at 0.01 uM; assay type: functional; conditions: Homo sapiens
DU-145 [56] = assay: inhibition of the growth of prostate cancer(DU-145) cell line; assay type: functional; conditions: Homo sapiens
SF-295 [57] = assay: inhibition of the growth of CNS cancer(SF-295) cell line; assay type: functional; conditions: Homo sapiens

COc1ccc(N(C)c2ccc3nc(N)nc(N)c3n2)cc1OC
inhibition at 0.01 µM (A549 [1]): 70%
GI50 (SF-268 [2]): < 10 nM
inhibition at 0.01 µM (SF-539 [3]): 67%
GI50 (UO-31 [4]): < 10 nM
GI50 (NCI-H322M [5]): < 10 nM
GI50 (IGROV-1 [6]): < 10 nM
GI50 (MDA-MB-435 [7]): < 10 nM
IC50 [8]: 0.88 nM
inhibition at 0.01 µM (MCF7 [9]): 60%
inhibition at 0.01 µM (SF-268 [10]): 52%
inhibition at 0.01 µM (NCI-H522 [11]): 59%
inhibition at 0.01 µM (M14 [12]): 59%
inhibition at 0.01 µM (KM12 [13]): 56%
GI50 (MDA-N [14]): < 10 nM
inhibition at 0.01 µM (786-0 [15]): 53%
inhibition at 0.01 µM (NCI/ADR-RES [16]): 84%
GI50 (SK-MEL-5 [17]): < 10 nM
inhibition at 0.01 µM (MOLT-4 [18]): 57%
inhibition at 0.01 µM (HCT-15 [19]): 75%
inhibition at 0.01 µM (SF-295 [20]): 68%
GI50 (SF-539 [21]): < 10 nM
GI50 (NCI/ADR-RES [22]): < 10 nM
GI50 (HCT-15 [23]): < 10 nM
GI50 (NCI-H522 [24]): < 10 nM
inhibition at 0.01 µM (SR [25]): 69%
inhibition at 0.01 µM (MDA-N [26]): 63%
inhibition at 0.01 µM (NCI-H322M [27]): 53%
GI50 (SR [28]): < 10 nM
GI50 (A549 [29]): < 10 nM
inhibition at 0.01 µM (RPMI-8226 [30]): 69%
IC50 (Dihydrofolate reductase [31]): 2.3 nM
inhibition at 0.01 µM (CAKI-1 [32]): 81%
inhibition at 0.01 µM (IGROV-1 [33]): 65%
GI50 (RPMI-8226 [34]): < 10 nM
GI50 (NCI-H23 [35]): < 10 nM
inhibition at 0.01 µM (MDA-MB-435 [36]): 72%
inhibition at 0.01 µM (NCI-H23 [37]): 82%
GI50 (OVCAR-8 [38]): < 10 nM
inhibition at 0.01 µM (UO-31 [39]): 100%
GI50 (MCF7 [40]): < 10 nM
GI50 (786-0 [41]): < 10 nM
inhibition at 0.01 µM (SNB-19 [42]): 90%
GI50 (NCI-H460 [43]): < 10 nM
GI50 (KM12 [44]): < 10 nM
GI50 (MOLT-4 [45]): < 10 nM
inhibition at 0.01 µM (OVCAR-8 [46]): 76%
inhibition at 0.01 µM (DU-145 [47]): 57%
GI50 (SNB-19 [48]): < 10 nM
GI50 (HCT-116 [49]): < 10 nM
GI50 (CAKI-1 [50]): < 10 nM
inhibition at 0.01 µM (SK-MEL-5 [51]): 83%
IC50 (Dihydrofolate reductase [52]): 0.4 nM
GI50 (M14 [53]): < 10 nM
inhibition at 0.01 µM (NCI-H460 [54]): 83%
inhibition at 0.01 µM (HCT-116 [55]): 83%
GI50 (DU-145 [56]): < 10 nM
GI50 (SF-295 [57]): < 10 nM
